Data published in patent US11696922B2, “Nanoparticle to target cancer” (Georgetown University, priority 2016, dated 2023).

Test system: gastrin mRNA
Assay: Gastrin mRNA decrease by gastrin siRNA si286
Type: cell-based

GUGCUGAGGAUGAGAACUA (listed as RNA, chemistry not given here) [si286]
decrease of gastrin mRNA: 90%
